Source: the supplement of paper PMC10307832

What follows are cell lines tested with C[C@@]1(C(=O)Nc2ccc(F)nc2)CCCN1c1nc(Nc2cc(C3CC3)n[nH]2)c2cccn2n1 + NC(=O)Nc1cc(-c2cccc(F)c2)sc1C(=O)N[C@H]1CCCNC1 [AZD7762] (partner 0.2 µM) (assay: relative viability (nuclei count vs DMSO), 5 days (fraction); higher = more cells survive). Conditions: first compound 0.4 µM.
Procedure, shortened: (§1)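 Nuclei were stained with Hoechst during a one-step fixation (final 0.05% Triton X-100, 1% formaldehyde, 1 ug/ml Hoechst) carried out 5 days after dosing, then counted on 4× images. The cells, lung cancer lines in 1536-well plates, had been dosed by pin tool the day after seeding with one drug alone or a fixed anchor-drug dose plus five library-drug doses (not always all listed) in √10 steps. Relative viability is the nuclei count in treated wells divided by that in vehicle wells, and each value is the median of duplicate plates.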

Cell Line	relative viability
NCI-H460	0.609
NCI-H2347	0.731
NCI-H1395	0.396
201T	0.473
NCI-H1915	0.663
HCC-827	0.241
LXF-289	0.968
NCI-H23	0.193
NCI-H647	0.452
NCI-H1651	0.409
EPLC-272H	0.212
NCI-H1792	0.332
NCI-H1355	0.539
NCI-H3122	0.651
NCI-H1437	0.688
NCI-H1755	0.378
HCC-15	1.25
NCI-H1793	0.393
PC-14	0.308
EKVX	0.489
LC-2-ad	0.543
NCI-H1944	0.419
NCI-H1975	0.498
RERF-LC-KJ	0.737

Same assay, conditions: first compound 1.265 µM

Cell Line	relative viability
NCI-H2170	0.791
NCI-H2405	0.313
HOP-62	0.547
HCC-44	0.979
LU99A	0.143
BEN	0.676
HARA	0.198
HCC-78	0.4
NCI-H322M	0.35
LCLC-97TM1	0.128
A-427	0.427
NCI-H441	0.856
NCI-H1734	0.446
NCI-H460	0.649
NCI-H2347	0.672
NCI-H1395	0.364
201T	0.597
NCI-H1915	0.701
HCC-827	0.191

Cell Line	relative viability
LXF-289	1.12
NCI-H23	0.114
NCI-H647	0.32
NCI-H1651	0.447
EPLC-272H	0.164
NCI-H1792	0.323
NCI-H1355	0.598
NCI-H3122	0.831
NCI-H1437	0.745
NCI-H1755	0.406
HCC-15	1.13
NCI-H1793	0.456
PC-14	0.348
EKVX	0.578
LC-2-ad	0.391
NCI-H1944	0.354
NCI-H1975	0.532
RERF-LC-KJ	0.723

These cell lines were tested with CC1(C)CNc2cc(NC(=O)c3cccnc3NCc3ccncc3)ccc21 [Motesanib] + O=C(c1cc(Cc2n[nH]c(=O)c3ccccc23)ccc1F)N1CCN(C(=O)C2CC2)CC1 [Olaparib] (partner 8 µM) in the same assay as above. Conditions: first compound 0.01 µM.
Procedure, shortened: as §1

Cell Line	relative viability
NCI-H2170	0.694
NCI-H2405	0.741
HOP-62	0.47
HCC-44	0.944
LU99A	0.284
BEN	1.02
HARA	0.761
HCC-78	0.938
NCI-H322M	0.82
LCLC-97TM1	0.373
A-427	0.78
NCI-H441	0.542
NCI-H1734	0.54
NCI-H460	0.413
NCI-H2347	0.536
NCI-H1395	0.442
201T	0.803
NCI-H1915	0.246
